The values that follow come from patent US7320977B2, “Substituted 2-phenyl-3(2h)-pyridazinones” (Bayer Healthcare AG, priority 2002, dated 2008).

The target in one data set is T1, lysyl oxidase (Bos taurus, UniProt P33072).
T1 construct: The enzyme was isolated from bovine aortas; from tissue; host or cells: bovine aorta
T1 sequence (P33072 170-418): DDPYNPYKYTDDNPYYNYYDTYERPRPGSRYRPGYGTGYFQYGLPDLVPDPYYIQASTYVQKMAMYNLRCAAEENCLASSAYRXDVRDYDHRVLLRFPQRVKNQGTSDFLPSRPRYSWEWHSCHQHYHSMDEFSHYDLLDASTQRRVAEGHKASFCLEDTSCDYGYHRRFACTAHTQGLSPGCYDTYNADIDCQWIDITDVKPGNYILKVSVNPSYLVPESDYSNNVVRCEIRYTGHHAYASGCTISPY
The experiment in a line: Test for lysyl oxidase-inhibitory effect (homovanillic acid/horseradish peroxidase fluorescence). The format is biochemical. The following applies: enzyme from bovine aortas, 15 minutes preincubation, pH 8.2; read-out: IC50 (inhibition of lysyl oxidase). How it is done:
1. Test for Lysyl Oxidase-inhibitory Effect:
The enzyme was isolated from bovine aortas in a modification of a method of Kagan et al. [Biochem. J. 177, 203-214 (1979)] by extraction with phosphate buffer containing urea, followed by precipitation and chromatography on DEAE-Sephadex.
The test solution (total volume 200 μl) is composed of 1.5 mM homovanillinic acid, 5 mM 1,5-diaminopentane, 1 unit of horseradish peroxidase and 1.5 M urea in 50 mM sodium borate buffer of pH 8.2. The enzyme was preincubated with the compound to be tested for 15 minutes; the reaction was started by adding diaminopentane and homovanillin/horseradish peroxidase. The fluorescence of the homovanillin dimer which formed was measured with excitation at 315 nm and emission at 425 nm. This test arrangement is a modification of the method of Trackman et al. [Anal. Biochem. 113, 336-341 (1981)].
The IC50 as a measure of the inhibition of lysyl oxidase is found by testing various concentrations of substance and using the concentration-effect plots.

The subject of data set [1] is serum-induced hepatic fibrosis in rats. In words: Model of serum-induced hepatic fibrosis, liver collagen content (4-hydroxyproline). In kind it is in vivo, rat. The following applies: serum-treated female Sprague-Dawley rats, 3 mg/kg p.o. o.d.; vehicle 2.070, intact 0.577; P <0.01. On the procedure: c) Model of Serum-induced Hepatic Fibrosis: A septal fibrosis can be induced in rats also by repeated injection of heterologous serum. For this purpose, 0.5 ml of sterile-filtered porcine serum is administered i.p. to each animal twice a week [Bhunchet and Wake, Hepatology 16, 1452-73 (1992)]. The experiments were carried out with female Sprague-Dawley rats (200-220 g). After 6-8 weeks, the septal fibrosis is histologically manifest and can also be detected through an increase in the liver hydroxyproline content. b) Collagen Content: The total collagen content was estimated by means of the tissue 4-hydroxyproline concentration. The method of Prockop and Udenfried [D. J. Prockop and S. Udenfried, A specific method for the analysis of hydroxyproline in tissues and urine, Anal. Biochem. 1, 228-239 (1960)] in modified form was used: liver samples with a wet weight of 60-90 mg were dried and then hydrolyzed in 6 N hydrochloric acid at 100° C. for 17 hours. The hydrolyzate was dried by evaporation and reconstituted in 5 ml of deionized water. […] After incubation at 35° C. for 3 hours, the absorption was measured at 573 nm. […]

The test system of data set [2] is hepatic fibrosis following bile duct ligature in rats. The experiment in a line: Model of bile duct ligature, histological morphometry (picrosirius red). The format is in vivo, rat. The following applies: 15 mg/kg p.o. b.i.d. On the procedure: b) Model of Bile Duct Ligature:
The experiments were carried out with female Sprague-Dawley rats (200-220 g). In order to generate chronic fibrosis, the bile duct (common hepatic duct) was doubly ligated in a surgical procedure. Ethibloc® occlusion emulsion (Ethicon, Norderstedt, Germany), a mixture of prolamine and ethanol, was instilled retrogradely into the biliary system [J. Kountouras, B. Billing, P. Scheuer, Prolonged bile obstruction: A new experimental model for cirrhosis in the rat, Br. J. Exp. Pathol. 65, 305-311 (1984); G. Boigk, L. Stroedter, H. Herbst, J. Waldschmidt, E. O. Riecken, D. Schuppan, Silymarin retards collagen accumulation in early and advanced biliary fibrosis secondary to complete bile duct obliteration in rats, Hepatology 26, 643-649 (1997)]. […] The animals were sacrificed and investigated three weeks after the surgical procedure.
a) Histological Assessments/Morphometry:
Standardized transverse cylinders of liver tissue (approx. 10×2 mm) were cut out of the right anterior lobe of each rat liver. Frozen sections were stained with 0.1% picrosirius red solution to detect scar collagen associated with hepatic fibrosis. The contrast was increased by counterstaining with fast green. The extent of hepatic fibrosis was found as a percentage of the part stainable with picrosirius red in each section. […]

For data set [3], the system named is hepatic fibrosis resulting from chronic administration of carbon tetrachloride in rats. In words: Model of chronic carbon tetrachloride intoxication, liver collagen content (4-hydroxyproline). Particulars: CCl4-treated female Sprague-Dawley rats, 30 mg/kg p.o. o.d., 6 weeks; vehicle 1.921, intact 0.504; P =0.059 vs. vehicle. The format is in vivo, rat. From the text:
a) Model of Chronic Carbon Tetrachloride Intoxication:
Chronic carbon tetrachloride (CCl4) treatment is a standard method for generating hepatic fibrosis of nonviral origin and subsequent cirrhosis. It is generally accepted as a model of hepatic fibrosis and cirrhosis in humans [E. McLean, A. McLean, P. Sutton, Instant Fibrosis: An improved method for producing cirrhosis of the liver in rats by simultaneous administration of carbon tetrachloride and phenobarbitone, Br. J. Exp. Pathol. 50, 502-506 (1969)].
Female Sprague-Dawley rats (200-220 g) were employed. In order to achieve maximum microsomal metabolization of the CCl4, the animals received isoniazid in the drinking water (1 g/l) for one week before starting the administration of carbon tetrachloride. CCl4 was administered orally each fifth day in a dose of 0.2 ml/100 g of bodyweight in a 1:1 mixture with mineral oil. […] Necropsy was performed 6 weeks after starting the treatment.
The total collagen content was estimated by means of the tissue 4-hydroxyproline concentration. […] After incubation at 35° C. for 3 hours, the absorption was measured at 573 nm. […]

Take `CN1CCN(c2cnn(-c3ccc(Cl)cc3)c(=O)c2Oc2ccc(-c3ccccc3)cc2)CC1.Cl` [Ex. 34]: the melting point turned out to be 162 °C. Further, the concentration for half-maximal inhibition (IC50) on lysyl oxidase turned out to be 9 nM. The “4-Hydroxyproline content: average in mg/g dry weight” value in data set [1] turned out to be 1.293 mg/g dry weight.

As for `N#Cc1ccc(-c2ccc(Oc3c(-n4ccnc4)cnn(-c4ccc(Cl)cc4)c3=O)cc2)cc1` [compound 80], the melting point was determined as 276 °C.

As for `CS(=O)(=O)N1CCN(c2cnn(-c3ccc(Cl)cc3)c(=O)c2Oc2ccc(-c3ccc(F)c(CN)c3)cc2)CC1` [Ex. 8, 4-{[3′-(Aminomethyl)-4′-fluoro-1,1′-biphenyl-4-yl]oxy}-2-(4-chlorophenyl)-5-[4-(methylsulfonyl)-1-piperazinyl]-3(2H)-pyridazinone], the half-maximal inhibitory concentration (IC50) on lysyl oxidase was 7 nM.

`N#CCCN` [β-Aminopropionitrile (BAPN), reference compound]: the IC50 on lysyl oxidase stood at 10000 nM.

For the molecule `O=c1c(Oc2ccc(-c3ccccc3)cc2)c(N2CCNCC2)cnn1-c1ccc(Cl)cc1` [Ex. 12, 4-(1,1′-Biphenyl-4-yloxy)-2-(4-chlorophenyl)-5-(1-piperazinyl)-3(2H)-pyridazinone], the 50% inhibitory concentration (IC50) at lysyl oxidase amounted to 3 nM.

On to `O=c1c(Oc2ccc(-c3ccccc3)cc2)c(-n2ccnc2)cnn1-c1ccc(Cl)cc1` [Ex. 82], for which the half-inhibitory concentration (IC50) at lysyl oxidase worked out at 11 nM. Also, the “Proportionate area stainable with picrosirius red: average in %” value in data set [2] (bile duct ligated female Sprague-Dawley rats, three weeks, vehicle 7.4, sham 0.21, P <0.05 vs. vehicle) is reported as 4.98%. In data set [2] (bile duct ligated rats, worked out from Table 2), the inhibition in fibrosis result is “approx. 34%”. In addition, in data set [3], the “4-Hydroxyproline content: average in mg/g dry weight” value is on record as 1.260 mg/g dry weight.

For `CCOc1c(N2CCOCC2)cnn(C)c1=O` [4-ethoxy-2-methyl-5-morpholino-3(2H)-pyridazinone, reference compound], the half-inhibitory concentration (IC50) on lysyl oxidase was greater than 4000 nM.

Consider `O=c1c(Oc2ccc(-c3ccccc3)cc2)c(-n2ccnc2)cnn1-c1ccc(F)cc1` [compound 74], for which the melting point turned out to be 119 °C.

In the case of `O=c1c(Oc2ccc(-c3ccc(O)cc3)cc2)c(-n2ccnc2)cnn1-c1ccc(Cl)cc1` [Ex. 81], the IC50 on lysyl oxidase turned out to be 7 nM.

In the case of `O=c1c(Oc2ccc(-c3ccccc3)cc2)c(-n2ccnc2)cnn1-c1cccc(F)c1` [compound 73], the melting point amounted to 148 °C.

Turning to `CCOC(=O)c1ccc(-n2ncc(-n3ccnc3)c(Oc3ccc(-c4ccccc4)cc3)c2=O)cc1` [compound 72], the melting point came out at 151 °C.

Molecule `Cc1ccc(-n2ncc(-n3ccnc3)c(Oc3ccc(-c4ccc(C#N)cc4)cc3)c2=O)cc1` [compound 76] came in with a melting point of 220 °C.

In turn, `O=c1c(Oc2ccc(-c3ccc(F)cc3)cc2)c(-n2ccnc2)cnn1-c1ccc([N+](=O)[O-])cn1` [compound 71] yielded a melting point of 186 °C.

On to `CCN1CCN(c2cnn(-c3ccc(C)cc3)c(=O)c2Oc2ccc(-c3ccc(O)cc3)cc2)CC1` [Ex. 5, 5-(4-Ethyl-1-piperazinyl)-4-[(4′-hydroxy-1,1′-biphenyl-4-yl)oxy]-2-(4-methylphenyl)-3(2H)-pyridazinone], for which the IC50 on lysyl oxidase came out at 17 nM.

`O=c1c(Oc2ccc(-n3cccc3)cc2)c(-n2ccnc2)cnn1-c1ccc(Cl)cc1` [compound 78] gave a melting point of 188 °C.

In the case of `CC(=O)NCc1cc(-c2ccc(Oc3c(N4CCNCC4)cnn(-c4ccc(Cl)cc4)c3=O)cc2)ccc1F` [Ex. 176], the IC50 at lysyl oxidase worked out at 10 nM.

As to `O=c1c(Oc2ccc(-c3ccc(F)cc3)cc2)c(N2CCC(CO)CC2)cnn1-c1ccc(Cl)cc1` [Ex. 25, 2-(4-Chlorophenyl)-4-[(4′-fluoro-1,1′-biphenyl-4-yl)oxy]-5-[4-(hydroxymethyl)-1-piperidinyl]-3(2H)-pyridazinone], the IC50 on lysyl oxidase turned out to be 5 nM.

On to `CS(=O)(=O)Nc1ccc(-c2ccc(Oc3c(-n4ccnc4)cnn(-c4ccc(Cl)cc4)c3=O)cc2)cc1` [compound 83], for which the melting point is 180 °C.

`Cc1ccc(-n2ncc(-n3ccnc3)c(Oc3ccc(-c4ccccc4)cc3)c2=O)cc1` [compound 77]: the melting point turned out to be 177 °C.
